In PMC9837764 (Nature Communications, 2023):
Values joined by “and” are separate entries in the source; they are usually repeats but may differ in a detail not shown here. Equal values may be shown once. Read-outs that look alike come from different tables or passages of the source.

Experiments:
[1] = in vivo; details: both sexes, mouse, mice
Method: For the MTD assay (OECD 425), mice (3 animals of each sex/group) were divided into five experimental groups, and the up and down procedure was applied to which 175 mg/kg was used as the first dose. […] Mortality, morbidity, body weight, food consumption, and general and detailed clinical signs of toxicity were evaluated. At necropsy, vital (brain, heart, liver, spleen, kidneys and adrenal glands) and reproductive organs (ovaries, testicles, and epididymis) were carefully removed, weighed and stored for further analysis (if necessary).

[2] = tested on: SARS-CoV-2 Gamma VoC; set-up: species or system Syrian hamsters (Mesocricetus auratus); details: hamster, in vivo, 140 mg/kg
[3] = tested on: SARS-CoV-2; experiment: Yield-reduction assay, SARS-CoV-2 in Calu-3 cells (titers as PFU/mL in Vero cells); details: for Inhibition of SARS-CoV-2 infectious titers (Fig1B source data, replicates): additional treatment at 24 h; for Inhibition of SARS-CoV-2 infectious titers (Fig1A source data, replicates): one treatment
[4] = tested on: IL-6; experiment: IL-6 in supernatant of SARS-CoV-2-infected human primary monocytes; format: cell-based; details: infected monocytes, drugs at 10 µM, 24 h
Method: (§1) Human primary monocytes were obtained after 3 h of plastic adherence of peripheral blood mononuclear cells (PBMCs). The use of primary human cell was approved by Institutional Review Board from the Oswaldo Cruz Foundation under protocol 49971421.8.0000.5248 with signed informed consent in accordance with the Hemotherapy Service of Hospital Clementino Fraga from the Federal University of Rio de Janeiro. All volunteers were de-identified. PBMCs were isolated from healthy donors by density gradient centrifugation (Ficoll-Paque, GE Healthcare). PBMCs (2.0 × 10^6 cells) were plated onto 48-well plates (NalgeNunc) in RPMI-1640 without serum for 2–4 h. Nonadherent cells were removed, and the remaining monocytes were maintained in DMEM with 5% human serum (HS; Millipore) and penicillin/streptomycin. The purity of human monocytes was above 95%, as determined by flow cytometric analysis (FACScan; Becton Dickinson) using anti-CD3 (BD Biosciences, cat # 555342, 1:40), anti-CD16 (Southern Biotech, cat # 561313, 1:20) and APC mouse IgG2a isotype (BD Biosciences, cat # 550882, 1/40) and PE mouse IgG1 isotype (BD Biosciences, 555749, 1/20).

[5] = tested on: Salmonella typhimurium TA 98; experiment: Ames test, strain TA 98
[6] = tested on: SARS-CoV-2; experiment: Cell-associated virus RNA in SARS-CoV-2-infected human primary monocytes; format: cell-based; details: for Cell-associated virus RNA loads, inhibition (Fig1C source data, per donor): monocytes
Method: as §1
Total viral RNA from a culture supernatant and/or monolayers was extracted using QIAamp Viral RNA (Qiagen®) according to the manufacturer’s instructions. Quantitative RT‒PCR was performed using GoTaq® Probe qPCR and RT-qPCR Systems (Promega) in a StepOne™ Real-Time PCR System (Thermo Fisher Scientific) ABI PRISM 7500 Sequence Detection System (Applied Biosystems). Amplifications were carried out in 25 µL reaction mixtures containing 2× reaction mix buffer, […] of each primer, 10 µM of probe, and 5 µL of RNA template. Primers, probes, and cycling conditions recommended by the Centers for Disease Control and Prevention (CDC) protocol were used to detect SARS-CoV-2[52]. The standard curve method was employed for virus quantification. For reference to the cell amounts used, the housekeeping gene RNAse P (F-5′-[…] -3′, R-5′[…] -3′, P-5′-FAM-[…] -BHQ-1-3′) was amplified. The Ct values for this target were compared to those obtained for different cell amounts, 10^7 to 10^2, for calibration.

[7] = male, Sprague-Dawley, rat, in vivo, 250 mg/kg
[8] = tested on: Salmonella typhimurium TA 97a; experiment: Ames test, strain TA 97a
[9] = tested on: TNF-α; experiment: TNF-α in supernatant of SARS-CoV-2-infected human primary monocytes; format: cell-based; details: infected monocytes
Method: as §1

[10] = Pharmacokinetics and metabolites in rat plasma; format: in vivo, Sprague-Dawley rats (Rattus norvegicus); set-up: MB-905 in rat plasma (Fig4B source data, per animal) / MB-905 in rat plasma (Fig4A source data, per animal): unit not given here; details: for MB-905 in rat plasma (Fig4A source data, per animal): 1 mg/kg i.v.; for MB-905 in rat plasma (Fig4B source data, per animal): 30 mg/kg oral; for k el: read-out: Ke (converted)
[11] = tested on: Salmonella typhimurium TA 100
[12] = both sexes, Sprague-Dawley, rat, plasma, iv, rats, 1 mg/kg (i.v.)
[13] = both sexes, Sprague-Dawley, rat, plasma, po, rats, 30 mg/kg (p.o.)

SMILES: c1coc(CNc2ncnc3[nH]cnc23)c1 [MB-905, N6-furfurylaminopurine]
- NOAEL [1]: 500 mg/kg
- MTD ([1]; oral, read-out: Recommended dose for repeated exposure (MTD assay)): 550 mg/kg
- Lung injury [2]: protected this organ
- EC50 ([3]; Severe acute respiratory syndrome coronavirus 2, Calu-3): 310 ± 50 nM
- EC50 ([3]; Severe acute respiratory syndrome coronavirus 2, Calu-3, 24 h): 30 ± 4 nM
- EC90 ([3]; Severe acute respiratory syndrome coronavirus 2, read-out: In vitro EC90 values, range): 2100 to 6300 nM
- Inhibition of SARS-CoV-2 infectious titers (Fig1B source data, replicates) ([3]; Drug 0.001, Calu-3, 48 h): 16 and 20 and 22
- Inhibition of SARS-CoV-2 infectious titers (Fig1B source data, replicates) ([3]; Drug 0.01): 22 and 55 and 63
- Inhibition of SARS-CoV-2 infectious titers (Fig1B source data, replicates) ([3]; Drug 0.1): 66 and 47 and 65
- Inhibition of SARS-CoV-2 infectious titers (Fig1B source data, replicates) ([3]; Drug 1): 92 and 72 and 69
- Inhibition of SARS-CoV-2 infectious titers (Fig1B source data, replicates) ([3]; Drug 10): 98 and 97 and 96
- Antiviral activity, SARS-CoV-2 replication ([3]; huh-7 and calu-3 cells (Supplementary Fig. 2)): inhibited SARS-CoV-2 replication in a concentration-dependent manner
- Inhibition of SARS-CoV-2 infectious titers (Fig1A source data, replicates) ([3]; Drug 0.001, Calu-3, MOI 0.1, 48 h): 5 and 4 and 2
- Inhibition of SARS-CoV-2 infectious titers (Fig1A source data, replicates) ([3]; Drug 0.01): 15 and 4 and 13
- Inhibition of SARS-CoV-2 infectious titers (Fig1A source data, replicates) ([3]; Drug 0.1): 22 and 39 and 30
- Inhibition of SARS-CoV-2 infectious titers (Fig1A source data, replicates) ([3]; Drug 1): 60 and 91 and 74
- Inhibition of SARS-CoV-2 infectious titers (Fig1A source data, replicates) ([3]; Drug 10): 66 and 96 and 88
- IL-6 levels in the culture supernatant (Fig1E source data, per donor) [4]: 1.3 and 0.5 and 1.0 and 2.4 and 0.8 and 1.4 and 2.3
- Mutagenicity TA 98 +S9 ([5]; 8 µg/mL): -
- Mutagenicity TA 98 -S9 ([5]; 8 µg/mL): -
- Mutagenicity TA 98 +S9 ([5]; 40 µg/mL): -
- Mutagenicity TA 98 -S9 ([5]; 40 µg/mL): -
- Mutagenicity TA 98 +S9 ([5]; 200 µg/mL): -
- Mutagenicity TA 98 -S9 ([5]; 200 µg/mL): -
- Mutagenicity TA 98 +S9 ([5]; 1,000 µg/mL): -
- Mutagenicity TA 98 -S9 ([5]; 1,000 µg/mL): -
- Mutagenicity TA 98 +S9 ([5]; 5,000 µg/mL): -
- Mutagenicity TA 98 -S9 ([5]; 5,000 µg/mL): -
- Cell-associated virus RNA levels in SARS-CoV-2-infected monocytes ([6]; Fig. 1c): reduced cell-associated virus RNA levels in a concentration-dependent manner
- Cell-associated virus RNA loads, inhibition (Fig1C source data, per donor) ([6]; 24 h, Drug 1): 41 and 30 and 63 and 20 and 2 (2×)
- Cell-associated virus RNA loads, inhibition (Fig1C source data, per donor) ([6]; 24 h, Drug 10): 93 and 42 and 46 and 13 and 6 and 12
- Cell-associated virus RNA loads, inhibition (Fig1C source data, per donor) ([6]; MOI 0.1, 24 h, Drug 0.1): 2 (3×) and 5 and 3 and 1
- Tolerability [7]: tolerated MB-905 well
- Mutagenicity TA 97a +S9 ([8]; 8 µg/mL): -
- Mutagenicity TA 97a -S9 ([8]; 8 µg/mL): -
- Mutagenicity TA 97a +S9 ([8]; 40 µg/mL): -
- Mutagenicity TA 97a -S9 ([8]; 40 µg/mL): -
- Mutagenicity TA 97a +S9 ([8]; 200 µg/mL): -
- Mutagenicity TA 97a -S9 ([8]; 200 µg/mL): -
- Mutagenicity TA 97a +S9 ([8]; 1,000 µg/mL): -
- Mutagenicity TA 97a -S9 ([8]; 1,000 µg/mL): -
- Mutagenicity TA 97a +S9 ([8]; 5,000 µg/mL): -
- Mutagenicity TA 97a -S9 ([8]; 5,000 µg/mL): -
- Ames test ([8]; all strains of Supplementary Table 3): negative
- SARS-CoV-2-induced TNF and IL-6 levels ([9]; 10 µM): diminished
- TNF-α levels in the culture supernatant (Fig1D source data, per donor) ([9]; drugs at 10 µM, 24 h): 0.7 and 0.9 and 0.537 and 2.5 and 0.474 and 3.4
- MB-905 in rat plasma (Fig4A source data, per animal) ([10]; 0.083 h): 122.29 and 142.1 and 107.27 and 127.39 and 93.94
- MB-905 in rat plasma (Fig4A source data, per animal) ([10]; 0.25 h): 82.46 and 129.29 and 128.28 and 120.23 and 112.61
- MB-905 in rat plasma (Fig4A source data, per animal) ([10]; 0.5 h): 65.31 and 60.03 and 69.73 and 52.81 and 69.66
- MB-905 in rat plasma (Fig4A source data, per animal) ([10]; 1 h): 28.25 and 16.64 and 9.33 and 14.09 and 7.19 and 13.17
- MB-905 in rat plasma (Fig4A source data, per animal) ([10]; 2 h): 1.74 and 1.82 and 1.9 and 1.56 and 1.91
- MB-905 in rat plasma (Fig4A source data, per animal) ([10]; 3 h): 0.61 and 1.31 and 1.15 (3×) and 1.21
- MB-905 in rat plasma (Fig4B source data, per animal) ([10]; 0.25 h): 397.32 and 362.53 and 415.61 and 353.44
- MB-905 in rat plasma (Fig4B source data, per animal) ([10]; 1 h): 263.22 and 231.26 and 292.83 and 229.84
- MB-905 in rat plasma (Fig4B source data, per animal) ([10]; 2 h): 88.19 and 121.59 and 183.67 and 211.01 and 229.72
- MB-905 in rat plasma (Fig4B source data, per animal) ([10]; 3 h): 243.45 and 113.36 and 86.5 and 220.24 and 141.51
- MB-905 in rat plasma (Fig4B source data, per animal) ([10]; 5 h): 154.28 and 65.58 and 86.37 and 126.88 and 27.06
- MB-905 in rat plasma (Fig4B source data, per animal) ([10]; 8 h): 116.98 and 84.1 and 84.26 and 4.12 and 35.08
- MB-905 in rat plasma (Fig4B source data, per animal) ([10]; 12 h): 1.46 and 1.1 and 5.1 and 3.6 and 2.01
- bioavailability ([10]; both sexes, Sprague-Dawley, rat, plasma, iv, 1 mg/kg, rats, 1 mg/kg (i.v.), read-out: F): 100%
- AUC [10, 12]: 77.1 ng·h/mL
- AUC(0-t) [10, 12]: 77.1 ng·h/mL
- Cmax [10, 12]: 124 ng/mL
- Tmax [10, 12]: 4.98 min
- clearance [10, 12]: 214 mL/min/kg
- half-life [10, 12]: 33.6 min
- k el [10, 12]: 0.000342 s⁻¹
- Vd ([10]; both sexes, Sprague-Dawley, rat, plasma, iv, rats, 1 mg/kg (i.v.), read-out: Vz): 10.4 L/kg
- bioavailability ([10]; both sexes, Sprague-Dawley, rat, plasma, po, 30 mg/kg, rats, 30 mg/kg (p.o.), read-out: F): 64.7%
- bioavailability ([10]; both sexes, Sprague-Dawley, rat, plasma, po, 30 mg/kg, rats, read-out: Oral bioavailability): > 50%
- AUC [10, 13]: 1500 ng·h/mL
- AUC(0-t) [10, 13]: 1500 ng·h/mL
- Cmax [10, 13]: 370 ng/mL
- Tmax [10, 13]: 15 min
- half-life [10, 13]: 229 min
- k el [10, 13]: 5e-05 s⁻¹
- CL ([10]; rats, 30 mg/kg (p.o.)): 330.53 mL/min/kg
- Vz ([10]; rats, 30 mg/kg (p.o.)): 109.18 L/kg
- Cytotoxicity and mutagenicity, preliminary assay TA 100 [11]: not observed
